Laboratory results: patent US20130337579A1, “Methods for Determining Protein Ligand Binding” (UNIVERSITY OF MARYLAND, COLLEGE PARK, priority 2010, published 2013)

Legend:
HisMBP-Alg44PilZ = molecular target: T1, HisMBP-Alg44PilZ (Pseudomonas aeruginosa, UniProt Q9HY69); assay: DRaCALA competition of cold nucleotides with 32P-cdiGMP binding to HisMBP-Alg44PilZ; parameters: species or system P. aeruginosa; conditions: 4 nM 32P-cdiGMP
T1 construct: His-MBP-Alg44PilZ was varied from 100 μM to 6 nM; made in house; host or cells: E. coli BL21(DE3)
T1 sequence (Q9HY69 16-116): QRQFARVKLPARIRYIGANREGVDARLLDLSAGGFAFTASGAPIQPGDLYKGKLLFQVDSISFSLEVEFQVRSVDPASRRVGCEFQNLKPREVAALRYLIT
Description: FIG. 2. Detection of specific protein-ligand interactions by DRaCALA. (A) DRaCALA images of interactions between purified proteins (20 μM) incubated with 500 nM ^14C-cAMP, 4 nM ^32P-ATP, or 4 nM ^32P-cdiGMP. Protein-ligand mixtures were spotted on nitrocellulose and allowed to dry prior to imaging using a Fuji FLA7100 phosphorimager. Cognate protein-nucleotide combinations are indicated by arrowheads. MBP was used as a negative control. (B) DRaCALA images of competition assays assessing the ability of 1 mM of the indicated cold nucleotides to compete with binding interactions between 4 nM ^32P-cdiGMP and 2.5 μM HisMBP-Alg44PilZ. (C) Graph of fraction bound for each sample in […] with averages indicated by a horizontal bar. NC indicates no competitor. P values were determined by a Student's t-test for significant differences when compared to the no-competitor (NC) control for three independent experiments. For total intensity of each DRaCALA spot in FIGS. 2A and 2B, see Tables 1 and 2, respectively.
Radiolabeled ligands were incubated with each of the proteins and the mixtures were spotted on nitrocellulose. After spreading by capillary action, membranes were dried and quantitated by phosphorimager. […] Each of the radiolabel signals from MBP mixtures was distributed by capillary action (FIG. 2A). […] The specificity of Alg44PilZ binding to cdiGMP was further tested by competition with excess unlabeled nucleotides (400-fold molar excess relative to the Alg44PilZ protein). Alg44PilZ binding to ^32P-cdiGMP was abolished by cdiGMP, but not by cGMP, GMP, GDP, GTP, ATP, CTP or UTP as was previously described (FIG. 2B). The FB for cdiGMP was 0.31±0.07, which was reversed by competition with unlabeled cdiGMP to the background level of 0.04±0.01 (FIG. 2C).
(§1) Protein or whole cell lysates in 1× cdiGMP binding buffer (20 μl) was mixed with 4 nM of radiolabeled nucleotide and allowed to incubate for 10 minutes at room temperature. Radiolabeled nucleotide was competed away by cold nucleotides in concentrations and for times indicated. Purified proteins were tested in technical replicates. Whole cell lysates in FIG. 4 and FIG. 12 were tested in biological triplicates. Whole cell lysates in FIG. 5 were tested in technical replicates. These mixtures were pipetted (2.5-5 μl) onto dry, untreated nitrocellulose (GE Healthcare) in triplicate and allowed to dry completely before quantification. An FLA7100 Fujifilm Life Science Phosphorimager was used to detect luminescence following a 5-minute exposure of blotted nitrocellulose to phosphorimager film. Data was quantified using Fujifilm Multi Gauge software v3.0.

[1] = molecular target: T2, Alg44PilZ expressed in E. coli BL21(DE3) (Pseudomonas aeruginosa, UniProt Q9HY69); assay: DRaCALA of whole cell lysates of E. coli BL21(DE3) expressing Alg44PilZ; type: binding, P. aeruginosa
T2 construct: E. coli BL21(DE3) expressing Alg44PilZ and variants; expressed in transfected cells; host or cells: E. coli BL21(DE3), whole cell lysate
T2 sequence (Q9HY69 16-116): as above
Source text: A major limitation of most biochemical assays is the requirement for purified protein. We asked whether DRaCALA could be applied to crude extracts to overcome this limitation. Alg44PilZ binding to cdiGMP requires a number of conserved residues, including R17, R21, D44 and S46, in the PilZ domain of the protein. E. coli BL21(DE3) expressing Alg44PilZ and variants with R21A, D44A, S46A, and R17A/R21A substitutions were lysed and tested for binding to cdiGMP using DRaCALA. […] Only the whole cell lysates from E. coli expressing wild-type Alg44PilZ sequestered ^32P-cdiGMP (FIG. 4A). […] A significant difference between the bound fractions for cdiGMP or GTP competition experiments was detected for the wild-type Alg44PilZ, but not for the PilZ domain mutants (FIGS. 4A and 4B). […]
Protein or whole cell lysates in 1× cdiGMP binding buffer (20 μl) was mixed with 4 nM of radiolabeled nucleotide and allowed to incubate for 10 minutes at room temperature. […] These mixtures were pipetted (2.5-5 μl) onto dry, untreated nitrocellulose (GE Healthcare) in triplicate and allowed to dry completely before quantification. An FLA7100 Fujifilm Life Science Phosphorimager was used to detect luminescence following a 5-minute exposure of blotted nitrocellulose to phosphorimager film. Data was quantified using Fujifilm Multi Gauge software v3.0. […]

E. coli NtrB = E. coli NtrB (Escherichia coli, UniProt P0AFB5); assay: DRaCALA binding of radiolabeled nucleotides to purified NtrB; conditions: 20 μM purified protein; 500 nM 14C-cAMP, 4 nM 32P-ATP or 4 nM 32P-cdiGMP
Sequence of E. coli NtrB (P0AFB5 whole entry): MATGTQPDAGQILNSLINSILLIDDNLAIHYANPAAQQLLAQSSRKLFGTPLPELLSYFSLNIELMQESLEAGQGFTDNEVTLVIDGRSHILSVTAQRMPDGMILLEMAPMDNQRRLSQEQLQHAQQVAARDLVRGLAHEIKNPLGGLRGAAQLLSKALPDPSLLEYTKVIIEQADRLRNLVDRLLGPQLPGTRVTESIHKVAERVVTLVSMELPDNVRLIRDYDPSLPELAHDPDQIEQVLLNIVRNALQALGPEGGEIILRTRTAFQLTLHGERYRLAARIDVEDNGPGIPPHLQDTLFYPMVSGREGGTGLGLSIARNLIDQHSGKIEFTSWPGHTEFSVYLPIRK
Description: Radiolabeled ligands were incubated with each of the proteins and the mixtures were spotted on nitrocellulose. After spreading by capillary action, membranes were dried and quantitated by phosphorimager. […] The specificity of Alg44PilZ binding to cdiGMP was further tested by competition with excess unlabeled nucleotides (400-fold molar excess relative to the Alg44PilZ protein).
as §1

Nc1nc2c(ncn2[C@@H]2O[C@@H]3CO[P@](=O)(O)O[C@H]4[C@@H](O)[C@H](n5cnc6c(=O)[nH]c(N)nc65)O[C@@H]4CO[P@](=O)(O)O[C@H]3[C@H]2O)c(=O)[nH]1 [cdiGMP, cyclic-di-GMP]
fraction bound (FB) after competition with unlabeled cdiGMP (HisMBP-Alg44PilZ; 1 mM unlabeled cdiGMP): 0.04±0.01
fraction bound (FB) (HisMBP-Alg44PilZ; no competitor): 0.31±0.07
Alg44PilZ binding to 32P-cdiGMP abolished by unlabeled nucleotide (HisMBP-Alg44PilZ; 1 mM cold nucleotide (400-fold molar excess over protein)): abolished
specific sequestration by whole cell extracts with soluble or insoluble protein ([1]; Alg44PilZ with or without MBP tag, BL21 whole cell extracts): specifically sequester
sequestration of 32P-cdiGMP by whole cell lysate ([1]; E. coli BL21(DE3) expressing wild-type Alg44PilZ): sequestered
binding to NtrB (sequestration of radiolabel signal) (E. coli NtrB): not
